Experimental data: article PMC6746264, “Novel tyrosinase inhibitory peptide with free radical scavenging ability” (Journal of Enzyme Inhibition and Medicinal Chemistry, 2019)
“Also recorded” adds a separate entry of the source. No end group written: not given here.

Tests used:
A375 cells = test: MTT assay (cell viability); type: cell-based, human; settings: 24 h, inhibitors 2.5 mM in PBS, absorbance 492 nm
Experimental: (§1) A human melanoma cell line (A375) was provided by the Stem Cell Bank, Chinese Academy of Sciences. The A375 cell line was cultured in DMEM media containing 10% fetal bovine serum and 1% penicillin/streptomycin in an incubator at 37 °C and an atmosphere containing 5% CO2[32].
The A375 cells were seeded at a density of 1 × 10^4 cells per well in a 96-well plate. They were incubated for 24 h at 37 °C under an atmosphere containing 5% CO2. Then, different tyrosinase inhibitors were added into the culture media. After incubation for 24 h, the cell viability was measured using the MTT assay, which was based on the conversion of MTT to formazan crystals by mitochondrial dehydrogenases. Briefly, the cell cultures were incubated with a 20 µl MTT solution (5 mg/mL) for 4 h at 37 °C. The culture supernatant was carefully removed from the well, and 150 µl DMSO was added followed by shaking for 10 min to dissolve the formazan crystals. Absorbance at 492 nm was measured using a microplate reader (VersaMax Microplate Reader)[35]. Cell viability of the control group in which […] was replaced by PBS was defined as 100%[36].

A375 melanoma cells = test: Number of proliferated melanoma cells; type: cell-based, human
Experimental: Fig. S3. The OD values at 475 nm of the solutions shown in Fig. 1A after storage for 12 months. Error
Fig. S4. Total number of proliferated melanoma cells in the presence of different tyrosinase inhibitors.
The concentration of each inhibitor is 2.5 mM. Error bars represent S.D. N=3. […]

[1] = cited from earlier work
Excerpt: However, the adverse side effects associated with their use have led to restrictions in their applications.

[2] = tested on: human melanoma cell line (A375); test: Intracellular tyrosinase activity inhibition assay (melanin production); type: cell-based; settings: A375 cells, 60 h, N = 3
Experimental: as §1
The A375 cells were seeded at a density of 1 × 10^5 cells/well in a 6-well plate and cultured for 12 h. […] After adding 0.5 ml NaOH (1 M), the cells were disrupted by sonication, and incubated at 50 °C for 10 min.

mushroom tyrosinase = mushroom tyrosinase (Agaricus bisporus, UniProt C7FF04); test: Comparison of tyrosinase inhibition rate (maximum reaction rate, IC50); type: biochemical
Sequence of mushroom tyrosinase (C7FF04 1-392): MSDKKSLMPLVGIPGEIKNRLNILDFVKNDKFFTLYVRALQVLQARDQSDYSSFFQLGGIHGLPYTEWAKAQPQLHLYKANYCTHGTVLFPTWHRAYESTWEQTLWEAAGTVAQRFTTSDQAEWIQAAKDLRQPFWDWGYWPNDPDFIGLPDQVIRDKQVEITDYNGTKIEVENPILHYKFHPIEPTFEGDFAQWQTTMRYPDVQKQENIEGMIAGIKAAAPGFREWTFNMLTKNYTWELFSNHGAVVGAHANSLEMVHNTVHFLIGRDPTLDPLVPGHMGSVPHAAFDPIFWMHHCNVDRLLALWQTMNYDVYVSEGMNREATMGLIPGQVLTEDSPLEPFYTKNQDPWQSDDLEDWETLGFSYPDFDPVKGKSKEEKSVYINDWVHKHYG
Experimental: Figure 2. […] (D) The plot of the percentage of enzyme activity (Vss) vs the […] concentration [I]. IC50 of the inhibitors were directly obtained from the plots.
Before conducting the experiment, all the solutions, 96-well plates, and tips were heated at 37 °C. Equal volumes of tyrosine solutions (final concentration of 2.5 mM) were added to the 96-well plates, mixed with different concentrations of the inhibitors mentioned above and incubated for 10 min at 37 °C. Then, equal volume of the tyrosinase solution (100 U per well) was added to the 96-well plate using a multichannel pipette, which was placed immediately in a microplate reader under shaking conditions for 30 s. Finally, the light absorbance value at 475 nm was recorded at 37 °C continuously for 2 h with intervals of 20 s. The maximum reaction rate of tyrosinase at each concentration of the inhibitor was calculated.

tyrosinase = test: CD spectroscopy; type: binding, mushroom; settings: 200–260 nm, 293.15 K, mixture with tyrosinase, 0.2 mg/ml
Experimental: The CD measurements were performed at 293.15 K with a bandwidth, step interval and scanning speed of 1.0 nm, 1 nm, and 50 nm min^−1, respectively.
Figure 4.

[3] = 1 mM, comparison among arbutin, glutathione and EF-5

## OC[C@H]1O[C@@H](Oc2ccc(O)cc2)[C@H](O)[C@@H](O)[C@@H]1O [arbutin]
A375 cells
  cell viability / toxicity: the inhibitory effect of arbutin on the viability of melanoma cells is significant
A375 melanoma cells; A375, arbutin 5 mM group versus EF-5 0.5 mM group
  total concentration of cells: much lesser than that in the EF-5 (0.5 mM) group
A375 melanoma cells; A375 melanoma cells, 2.5 mM, N=3
  inhibition of cell proliferation: inhibit proliferation of the cells
[1]
  contact dermatitis / exogenous ochronosis: contact dermatitis
[2]; [3]
  melanin inhibitory effect: the melanin inhibitory effects of arbutin and glutathione were similar
[2]; arbutin 5 mM compared with EF-5 0.5 mM
  melanin inhibitory effect: similar

## Oc1ccc(O)cc1 [hydroquinone]
[1]
  contact dermatitis / exogenous ochronosis: exogenous ochronosis

## O=c1cc(CO)occ1O [kojic acid]
[1]
  carcinogenicity: has demonstrated carcinogenicity

## ECGYF [EF-5, ECGYF]
A375 cells
  cell viability / toxicity: nontoxic to cells; also recorded: nontoxic to the melanocytes
Mushroom tyrosinase; EF-5 IC50 as fraction of that of arbutin
  IC50 relative to IC50 of arbutin: about 1/12

## glutathione
tyrosinase
  change of CD spectrum of tyrosinase: does not show such changes
Mushroom tyrosinase; 475 nm, 37 °C, compared with arbutin
  lag phase of the catalytic reaction of tyrosinase: may significantly increase the lag phase
[2]; [3]
  melanin inhibitory effect: the melanin inhibitory effects of arbutin and glutathione were similar
